Measurements as given in patent publication US9073855B2, “BCL-2 selective apoptosis-inducing agents for the treatment of cancer and immune diseases” (AbbVie Inc., priority 2008, dated 2015).

Key:
GST-Bcl-2 = GST-Bcl-2 (Homo sapiens, UniProt P10415); assay: TR-FRET binding assay, GST-Bcl-2 with F-Bak peptide probe; settings: for Ki: TR-FRET Binding Affinity; for Binding selectivity ratio (Bcl-XL Ki/Bcl-2 Ki): TR-FRET, Bcl-XL Ki divided by Bcl-2 Ki
In short: (§1)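 Displacement of a fluorescein-labelled Bak peptide from the GST-tagged protein was followed by time-resolved FRET with a terbium anti-GST donor after 3 h incubation at room temperature. Inhibition constants were calculated with Wang's equation.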

GST-Bcl-XL = GST-Bcl-XL (Homo sapiens, UniProt Q07817); assay: TR-FRET binding assay, GST-Bcl-XL with F-Bak peptide probe; settings: TR-FRET Binding Affinity
GST-Bcl-XL, sequence (Q07817 whole entry): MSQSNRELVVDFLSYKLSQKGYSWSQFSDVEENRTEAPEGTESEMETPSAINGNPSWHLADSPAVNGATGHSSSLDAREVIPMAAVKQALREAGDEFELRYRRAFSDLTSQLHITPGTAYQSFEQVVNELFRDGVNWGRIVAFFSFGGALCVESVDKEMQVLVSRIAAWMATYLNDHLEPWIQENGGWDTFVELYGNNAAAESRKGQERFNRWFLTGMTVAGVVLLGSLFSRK
In short: as §1

GST-Bcl-2, sequence (P10415 whole entry): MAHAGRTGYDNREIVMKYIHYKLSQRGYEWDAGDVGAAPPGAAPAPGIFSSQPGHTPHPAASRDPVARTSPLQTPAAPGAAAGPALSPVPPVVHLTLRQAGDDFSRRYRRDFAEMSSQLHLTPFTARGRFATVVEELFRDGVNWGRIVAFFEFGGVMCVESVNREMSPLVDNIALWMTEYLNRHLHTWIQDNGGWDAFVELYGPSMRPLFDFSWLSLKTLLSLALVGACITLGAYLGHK

SMILES	Ki (GST-Bcl-2)	Binding selectivity ratio (Bcl-XL Ki/Bcl-2 Ki) (GST-Bcl-2)	Ki (GST-Bcl-XL)
CC(=O)N1CCOC(CNc2ccc(S(=O)(=O)NC(=O)c3ccc(N4CCN(CC5=C(c6ccc(Cl)cc6)CC(C)(C)CC5)CC4)cc3Oc3cccc4[nH]cnc34)cc2[N+](=O)[O-])C1 (stereo not shown) [Example 457, N-[(4-{[(4-acetylmorpholin-2-yl)methyl]amino}-3-nitrophenyl)sulfonyl]-2-(1H-benzimidazol-4-yloxy)-4-(4-{[2-(4-chlorophenyl)-4,4-dimethylcyclohex-1-en-1-yl]methyl}piperazin-1-yl)benzamide]	0.045 nM	7413.6	331 nM
CC1(C)CCC(CN2CCN(c3ccc(C(=O)NS(=O)(=O)c4ccc(NCC5CN(S(C)(=O)=O)CCO5)c([N+](=O)[O-])c4)c(Oc4cccc5[nH]cnc45)c3)CC2)=C(c2ccc(Cl)cc2)C1 (stereo not shown) [Example 458, 2-(1H-benzimidazol-4-yloxy)-4-(4-{[2-(4-chlorophenyl)-4,4-dimethylcyclohex-1-en-1-yl]methyl}piperazin-1-yl)-N-{[4-({[4-(methylsulfonyl)morpholin-2-yl]methyl}amino)-3-nitrophenyl]sulfonyl}benzamide]	< 0.01 nM	237.2	2.37 nM
CC1(C)CCC(CN2CCN(c3ccc(C(=O)NS(=O)(=O)c4cnc(OCC5(F)CCN(C(CF)CF)CC5)c(C(F)(F)F)c4)c(Oc4cccc5[nH]ncc45)c3)CC2)=C(c2ccc(Cl)cc2)C1 [Example 459, 4-(4-{[2-(4-chlorophenyl)-4,4-dimethylcyclohex-1-en-1-yl]methyl}piperazin-1-yl)-N-{[6-({4-fluoro-1-[2-fluoro-1-(fluoromethyl)ethyl]piperidin-4-yl}methoxy)-5-(trifluoromethyl)pyridin-3-yl]sulfonyl}-2-(1H-indazol-4-yloxy)benzamide]	< 0.01 nM	541.6	5.42 nM
CC1(C)CCC(CN2CCN(c3ccc(C(=O)NS(=O)(=O)c4ccc(NCC5CCOCC5)c([N+](=O)[O-])c4)c(Oc4ccccc4)c3)CC2)=C(c2ccc(Cl)cc2)C1 [Example 460, 4-(4-{[2-(4-chlorophenyl)-4,4-dimethylcyclohex-1-en-1-yl]methyl}piperazin-1-yl)-N-({3-nitro-4-[(tetrahydro-2H-pyran-4-ylmethyl)amino]phenyl}sulfonyl)-2-phenoxybenzamide]	0.049 nM	–	29 nM
CC1(C)CCC(CN2CCN(c3ccc(C(=O)NS(=O)(=O)c4cnc(OCCC5CCCO5)c(Cl)c4)c(Oc4cccc5[nH]ncc45)c3)CC2)=C(c2ccc(Cl)cc2)C1 (stereo not shown) [Example 461, 4-(4-{[2-(4-chlorophenyl)-4,4-dimethylcyclohex-1-en-1-yl]methyl}piperazin-1-yl)-N-{[5-chloro-6-(2-tetrahydrofuran-2-ylethoxy)pyridin-3-yl]sulfonyl}-2-(1H-indazol-4-yloxy)benzamide]	0.093 nM	39.4	3.65 nM
CC1(C)CCC(CN2CCN(c3ccc(C(=O)NS(=O)(=O)c4ccc(NC[C@H]5CC[C@H](C#N)CC5)c([N+](=O)[O-])c4)c(Oc4cccc5[nH]cnc45)c3)CC2)=C(c2ccc(Cl)cc2)C1 [Example 462, Trans-2-(1H-benzimidazol-4-yloxy)-4-(4-{[2-(4-chlorophenyl)-4,4-dimethylcyclohex-1-en-1-yl]methyl}piperazin-1-yl)-N-[(4-{[(4-cyanocyclohexyl)methyl]amino}-3-nitrophenyl)sulfonyl]benzamide]	0.026 nM	–	18.4 nM
CC1(C)CCC(CN2CCN(c3ccc(C(=O)NS(=O)(=O)c4cnc(OCC5CCC(F)(F)CC5)c(Cl)c4)c(Oc4cccc5[nH]cnc45)c3)CC2)=C(c2ccc(Cl)cc2)C1 [Example 463, 2-(1H-benzimidazol-4-yloxy)-N-({5-chloro-6-[(4,4-difluorocyclohexyl)methoxy]pyridin-3-yl}sulfonyl)-4-(4-{[2-(4-chlorophenyl)-4,4-dimethylcyclohex-1-en-1-yl]methyl}piperazin-1-yl)benzamide]	0.007 nM	6042.9	43.9 nM
CC1(C)CCC(CN2CCN(c3ccc(C(=O)NS(=O)(=O)c4ccc(OCC5(F)CCOCC5)c(Cl)c4)c(Oc4cccc5[nH]ncc45)c3)CC2)=C(c2ccc(Cl)cc2)C1 [Example 464, N-({3-chloro-4-[(4-fluorotetrahydro-2H-pyran-4-yl)methoxy]phenyl}sulfonyl)-4-(4-{[2-(4-chlorophenyl)-4,4-dimethylcyclohex-1-en-1-yl]methyl}piperazin-1-yl)-2-(1H-indazol-4-yloxy)benzamide]	0.081 nM	6431.8	521 nM
CC1(C)CC(c2ccc(Cl)cc2)=C(CN2CCN(c3ccc(C(=O)NS(=O)(=O)c4cnc(OCC5(F)CCOCC5)c(Cl)c4)c(Oc4cccc5[nH]ncc45)c3)CC2)CO1 [Example 465, N-({5-chloro-6-[(4-fluorotetrahydro-2H-pyran-4-yl)methoxy]pyridin-3-yl}sulfonyl)-4-(4-{[4-(4-chlorophenyl)-6,6-dimethyl-5,6-dihydro-2H-pyran-3-yl]methyl}piperazin-1-yl)-2-(1H-indazol-4-yloxy)benzamide]	0.025 nM	1472.4	37.2 nM
CC1(C)CCC(CN2CCN(c3ccc(C(=O)NS(=O)(=O)c4cnc(OCC5CCC(F)(F)CC5)c(Cl)c4)c(Oc4cccc5[nH]ncc45)c3)CC2)=C(c2ccc(Cl)cc2)C1 [Example 482, N-({5-chloro-6-[(4,4-difluorocyclohexyl)methoxy]pyridin-3-yl}sulfonyl)-4-(4-{[2-(4-chlorophenyl)-4,4-dimethylcyclohex-1-en-1-yl]methyl}piperazin-1-yl)-2-(1H-indazol-4-yloxy)benzamide]	0.064 nM	5442.9	350 nM
CC1(C)CCC(CN2CCN(c3ccc(C(=O)NS(=O)(=O)c4cnc(OC[C@H]5CC[C@H](C(N)=O)CC5)c(Cl)c4)c(Oc4cccc5[nH]ncc45)c3)CC2)=C(c2ccc(Cl)cc2)C1 [Example 483, N-({6-[(trans-4-carbamoylcyclohexyl)methoxy]-5-chloropyridin-3-yl}sulfonyl)-4-(4-{[2-(4-chlorophenyl)-4,4-dimethylcyclohex-1-en-1-yl]methyl}piperazin-1-yl)-2-(1H-indazol-4-yloxy)benzamide]	< 0.01 nM	>563.0	5.63 nM
CC1(C)CCC(CN2CCN(c3ccc(C(=O)NS(=O)(=O)c4ccc(NC[C@H]5CC[C@H](C#N)CC5)c([N+](=O)[O-])c4)c(Oc4cccc5[nH]ncc45)c3)CC2)=C(c2ccc(Cl)cc2)C1 [Example 484, 4-(4-{[2-(4-chlorophenyl)-4,4-dimethylcyclohex-1-en-1-yl]methyl}piperazin-1-yl)-N-[(4-{[(trans-4-cyanocyclohexyl)methyl]amino}-3-nitrophenyl)sulfonyl]-2-(1H-indazol-4-yloxy)benzamide]	< 0.01 nM	>3433.9	34.3 nM
CC1(C)CCC(CN2CCN(c3ccc(C(=O)NS(=O)(=O)c4cnc(OCCn5ccnc5)c(Cl)c4)c(Oc4cccc5[nH]ncc45)c3)CC2)=C(c2ccc(Cl)cc2)C1 [Example 485, N-({5-chloro-6-[2-(1H-imidazol-1-yl)ethoxy]pyridin-3-yl}sulfonyl)-4-(4-{[2-(4-chlorophenyl)-4,4-dimethylcyclohex-1-en-1-yl]methyl}piperazin-1-yl)-2-(1H-indazol-4-yloxy)benzamide]	0.167 nM	324.0	54.2 nM
Cn1cncc1COc1ncc(S(=O)(=O)NC(=O)c2ccc(N3CCN(CC4=C(c5ccc(Cl)cc5)CC(C)(C)CC4)CC3)cc2Oc2cccc3[nH]ncc23)cc1Cl [Example 486, N-({5-chloro-6-[(1-methyl-1H-imidazol-5-yl)methoxy]pyridin-3-yl}sulfonyl)-4-(4-{[2-(4-chlorophenyl)-4,4-dimethylcyclohex-1-en-1-yl]methyl}piperazin-1-yl)-2-(1H-indazol-4-yloxy)benzamide]	0.328 nM	77.6	25.5 nM
CC1(C)CCC(CN2CCN(c3ccc(C(=O)NS(=O)(=O)c4cnc(OCC5CCOCC5)c(F)c4)c(Oc4cccc5[nH]ncc45)c3)CC2)=C(c2ccc(Cl)cc2)C1 [Example 487, 4-(4-{[2-(4-chlorophenyl)-4,4-dimethylcyclohex-1-en-1-yl]methyl}piperazin-1-yl)-N-{[5-fluoro-6-(tetrahydro-2H-pyran-4-ylmethoxy)pyridin-3-yl]sulfonyl}-2-(1H-indazol-4-yloxy)benzamide]	0.033 nM	2287.2	75.4 nM
CC1(C)CCC(CN2CCN(c3ccc(C(=O)NS(=O)(=O)c4cnc(OCC5COCCO5)c(Cl)c4)c(Oc4cccc5[nH]ncc45)c3)CC2)=C(c2ccc(Cl)cc2)C1 (stereo not shown) [Example 488, N-{[5-chloro-6-(1,4-dioxan-2-ylmethoxy)pyridin-3-yl]sulfonyl}-4-(4-{[2-(4-chlorophenyl)-4,4-dimethylcyclohex-1-en-1-yl]methyl}piperazin-1-yl)-2-(1H-indazol-4-yloxy)benzamide]	< 0.01 nM	>2345.9	23.5 nM
CC1(C)CCC(CN2CCN(c3ccc(C(=O)NS(=O)(=O)c4cnc(OCC5(O)CCC(F)(F)CC5)c(Cl)c4)c(Oc4cccc5[nH]ncc45)c3)CC2)=C(c2ccc(Cl)cc2)C1 [Example 490, N-({5-chloro-6-[(4,4-difluoro-1-hydroxycyclohexyl)methoxy]pyridin-3-yl}sulfonyl)-4-(4-{[2-(4-chlorophenyl)-4,4-dimethylcyclohex-1-en-1-yl]methyl}piperazin-1-yl)-2-(1H-indazol-4-yloxy)benzamide]	1.14 nM	92.7	106 nM
